Like-named read-outs stand apart in the source and are kept apart here.
How the values were obtained:
5-HT1A = target: T1, 5-HT1A (Homo sapiens, UniProt P08908); assay: 5-HT receptor activity (Table 3), 5-HT1A; format: cell-based
T1 sequence (P08908 1-422): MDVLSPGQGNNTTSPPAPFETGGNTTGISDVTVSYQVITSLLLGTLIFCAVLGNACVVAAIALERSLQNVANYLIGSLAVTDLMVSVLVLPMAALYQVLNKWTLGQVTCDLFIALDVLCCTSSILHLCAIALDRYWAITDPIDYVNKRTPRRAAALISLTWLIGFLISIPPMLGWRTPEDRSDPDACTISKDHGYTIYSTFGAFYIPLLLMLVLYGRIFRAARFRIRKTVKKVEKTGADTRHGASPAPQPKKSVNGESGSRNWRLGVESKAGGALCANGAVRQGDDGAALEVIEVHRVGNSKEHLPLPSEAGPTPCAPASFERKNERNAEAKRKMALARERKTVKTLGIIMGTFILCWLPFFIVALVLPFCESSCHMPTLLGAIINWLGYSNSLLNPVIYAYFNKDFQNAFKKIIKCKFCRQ

5-HT6 = 5-HT6 (Homo sapiens, UniProt P50406); assay: 5-HT receptor activity (Table 3), 5-HT6; format: cell-based
5-HT2C = target: T2, 5-HT2C (Homo sapiens, UniProt P28335); assay: cell-based; details: Table 3
T2 sequence (P28335 33-458): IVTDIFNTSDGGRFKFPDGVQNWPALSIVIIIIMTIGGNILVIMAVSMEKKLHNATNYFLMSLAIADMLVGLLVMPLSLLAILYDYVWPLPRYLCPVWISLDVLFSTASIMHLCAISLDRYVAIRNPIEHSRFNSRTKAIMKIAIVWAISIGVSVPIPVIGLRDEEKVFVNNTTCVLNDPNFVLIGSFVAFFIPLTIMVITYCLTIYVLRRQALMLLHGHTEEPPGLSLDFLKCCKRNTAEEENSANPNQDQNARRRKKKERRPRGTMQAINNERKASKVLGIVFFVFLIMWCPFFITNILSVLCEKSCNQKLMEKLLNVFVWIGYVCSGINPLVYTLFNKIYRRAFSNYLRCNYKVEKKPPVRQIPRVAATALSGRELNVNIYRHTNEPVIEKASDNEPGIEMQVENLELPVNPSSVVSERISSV

hepatocyte [1] = assay: In vitro hepatocyte clearance, human; format: in vitro ADME; details: Human
Procedure: (§1) Additional experimentation was performed on compounds 1, W5, and A93. Table 6a, 6b and 6c summarize, among other things, the anticipated hepatic clearance of compounds 1, W5 and A93 respectively, in various species, as specified in Table 6a, 6b and 6c and as determined by calculating the in vitro hepatocyte clearance over time and scaling such rate with such species' hepatocyte count and the anticipated liver blood flow rate in such species.

[2] = In vitro hepatocyte clearance, human; format: in vitro ADME; details: Human hepatocytes
Procedure: as §1

5-HT1B = 5-HT1B (Homo sapiens, UniProt P28222); assay: 5-HT receptor activity (Table 3), 5-HT1B; format: cell-based
hepatocyte [3] = assay: In vitro hepatocyte clearance, mouse; format: in vitro ADME; details: Mouse
Procedure: as §1

[4] = In vitro hepatocyte clearance, mouse; format: in vitro ADME; details: Mouse hepatocytes
Procedure: as §1

hepatocyte [5] = assay: In vitro hepatocyte clearance, rat; format: in vitro ADME; details: Rat
Procedure: as §1

[6] = In vitro hepatocyte clearance, rat; format: in vitro ADME
Procedure: as §1

5-HT2A = 5-HT2A (Homo sapiens, UniProt P28223); assay: 5-HT2A Gq dissociation BRET functional assay; format: cell-based; design: expressed in transfected cells; host or cells: HEK293T
5-HT7 = 5-HT7 (Homo sapiens, UniProt P34969); assay: 5-HT receptor activity (Table 3), 5-HT7; format: cell-based
5-HT1D = 5-HT1D (Homo sapiens, UniProt P28221); assay: 5-HT receptor activity (Table 3), 5-HT1D; format: cell-based
Chain of 5-HT1D (P28221 whole entry, species assumed): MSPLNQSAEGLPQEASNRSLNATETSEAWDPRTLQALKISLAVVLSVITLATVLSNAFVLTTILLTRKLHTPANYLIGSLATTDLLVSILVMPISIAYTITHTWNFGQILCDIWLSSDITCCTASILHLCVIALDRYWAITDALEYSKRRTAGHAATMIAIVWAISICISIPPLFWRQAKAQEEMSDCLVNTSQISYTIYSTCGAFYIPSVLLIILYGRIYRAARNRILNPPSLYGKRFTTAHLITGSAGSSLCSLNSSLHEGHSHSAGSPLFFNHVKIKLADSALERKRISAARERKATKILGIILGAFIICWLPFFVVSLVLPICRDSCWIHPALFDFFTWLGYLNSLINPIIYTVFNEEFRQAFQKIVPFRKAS

Chain of 5-HT1B (P28222 whole entry, species assumed): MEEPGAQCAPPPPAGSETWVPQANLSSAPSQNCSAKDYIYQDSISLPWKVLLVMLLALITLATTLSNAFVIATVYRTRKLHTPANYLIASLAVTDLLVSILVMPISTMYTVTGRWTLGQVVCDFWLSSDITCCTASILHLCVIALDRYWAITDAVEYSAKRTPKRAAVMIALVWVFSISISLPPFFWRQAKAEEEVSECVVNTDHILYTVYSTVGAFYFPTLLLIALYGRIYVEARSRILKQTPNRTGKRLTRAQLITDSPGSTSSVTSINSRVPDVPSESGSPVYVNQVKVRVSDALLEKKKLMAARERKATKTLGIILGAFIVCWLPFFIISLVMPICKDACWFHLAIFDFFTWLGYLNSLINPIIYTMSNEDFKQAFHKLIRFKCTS
Chain of 5-HT6 (P50406 whole entry, species assumed): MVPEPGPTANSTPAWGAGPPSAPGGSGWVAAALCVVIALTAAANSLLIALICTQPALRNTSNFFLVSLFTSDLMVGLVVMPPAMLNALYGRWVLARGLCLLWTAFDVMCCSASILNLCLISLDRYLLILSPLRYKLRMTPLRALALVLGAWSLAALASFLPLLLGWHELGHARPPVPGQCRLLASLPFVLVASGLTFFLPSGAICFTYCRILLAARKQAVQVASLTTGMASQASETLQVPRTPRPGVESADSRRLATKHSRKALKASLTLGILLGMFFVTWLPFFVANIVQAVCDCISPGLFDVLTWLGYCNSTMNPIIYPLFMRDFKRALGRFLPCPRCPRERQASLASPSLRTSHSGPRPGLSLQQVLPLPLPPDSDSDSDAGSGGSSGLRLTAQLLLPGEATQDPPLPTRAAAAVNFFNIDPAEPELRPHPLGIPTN
Chain of 5-HT2A (P28223 whole entry): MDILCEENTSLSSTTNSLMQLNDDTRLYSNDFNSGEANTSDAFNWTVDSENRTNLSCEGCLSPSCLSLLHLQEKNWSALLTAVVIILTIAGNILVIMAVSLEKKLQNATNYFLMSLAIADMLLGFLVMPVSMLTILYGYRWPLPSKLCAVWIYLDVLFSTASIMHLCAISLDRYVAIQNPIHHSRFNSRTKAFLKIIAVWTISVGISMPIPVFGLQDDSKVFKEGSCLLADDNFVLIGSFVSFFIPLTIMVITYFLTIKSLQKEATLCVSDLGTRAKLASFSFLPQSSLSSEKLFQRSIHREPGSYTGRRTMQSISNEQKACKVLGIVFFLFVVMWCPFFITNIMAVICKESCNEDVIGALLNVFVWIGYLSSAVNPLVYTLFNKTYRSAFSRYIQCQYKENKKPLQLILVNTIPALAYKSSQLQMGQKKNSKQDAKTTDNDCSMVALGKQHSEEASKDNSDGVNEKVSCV
Chain of 5-HT7 (P34969 whole entry, species assumed): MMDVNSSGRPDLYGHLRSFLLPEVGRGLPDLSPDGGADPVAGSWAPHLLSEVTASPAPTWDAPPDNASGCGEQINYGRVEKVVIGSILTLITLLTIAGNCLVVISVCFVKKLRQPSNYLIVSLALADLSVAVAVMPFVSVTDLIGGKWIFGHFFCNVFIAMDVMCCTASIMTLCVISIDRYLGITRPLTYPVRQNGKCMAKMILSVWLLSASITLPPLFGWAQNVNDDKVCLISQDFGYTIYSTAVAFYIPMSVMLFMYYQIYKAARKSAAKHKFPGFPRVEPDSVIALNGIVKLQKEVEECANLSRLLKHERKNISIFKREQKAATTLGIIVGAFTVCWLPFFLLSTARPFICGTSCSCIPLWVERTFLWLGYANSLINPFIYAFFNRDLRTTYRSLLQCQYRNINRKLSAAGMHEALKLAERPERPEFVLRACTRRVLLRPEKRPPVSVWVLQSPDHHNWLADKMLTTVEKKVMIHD

Cc1ccc(O)c2c3c([nH]c12)CCNCC3 [Cpd #1 (Pharm-136), 7-Methyl-1,2,3,4,5,6-hexahydroazepino[4,5-b]indol-10-ol]
EC50 (5-HT1A): 4000 nM | Eff (5-HT1A): 73% | EC50 (5-HT6): 53.2 nM | Eff (5-HT6): 55% | EC50 (5-HT2C): 0.5 nM | Eff (5-HT2C): 95% | Count (n. of wells) (TA1537; TA1537 + S9, 1.0E−04M): 0 n. of wells | Significance (TA1537; TA1537 + S9, 1.0E−04M): Negative | Count (n. of wells) (TA1537; TA1537 + S9, 1.0E−05M): 1 n. of wells | Significance (TA1537; TA1537 + S9, 1.0E−05M): Negative | Count (n. of wells) (TA1537; TA1537 + S9, 5.0E−05M): 0 n. of wells | Significance (TA1537; TA1537 + S9, 5.0E−05M): Negative | Count (n. of wells) (TA1537; TA1537 + S9, 5.0E−06M): 2 n. of wells | Significance (TA1537; TA1537 + S9, 5.0E−06M): Negative | Count (n. of wells) (TA1537; TA1537 − S9, 1.0E−04M): 0 n. of wells | Significance (TA1537; TA1537 − S9, 1.0E−04M): Negative | Count (n. of wells) (TA1537; TA1537 − S9, 1.0E−05M): 1 n. of wells | Significance (TA1537; TA1537 − S9, 1.0E−05M): Negative | Count (n. of wells) (TA1537; TA1537 − S9, 5.0E−05M): 0 n. of wells | Significance (TA1537; TA1537 − S9, 5.0E−05M): Negative | Count (n. of wells) (TA1537; TA1537 − S9, 5.0E−06M): 0 n. of wells | Significance (TA1537; TA1537 − S9, 5.0E−06M): Negative | Count (n. of wells) (TA100; TA100 + S9, 1.0E−04M): 0 n. of wells | Significance (TA100; TA100 + S9, 1.0E−04M): Negative | Count (n. of wells) (TA100; TA100 + S9, 1.0E−05M): 8 n. of wells | Significance (TA100; TA100 + S9, 1.0E−05M): Negative | Count (n. of wells) (TA100; TA100 + S9, 5.0E−05M): 1 n. of wells | Significance (TA100; TA100 + S9, 5.0E−05M): Negative | Count (n. of wells) (TA100; TA100 + S9, 5.0E−06M): 13 n. of wells | Significance (TA100; TA100 + S9, 5.0E−06M): Negative | Count (n. of wells) (TA100; TA100 − S9, 1.0E−04M): 0 n. of wells | Significance (TA100; TA100 − S9, 1.0E−04M): Negative | Count (n. of wells) (TA100; TA100 − S9, 1.0E−05M): 1 n. of wells | Significance (TA100; TA100 − S9, 1.0E−05M): Negative | Count (n. of wells) (TA100; TA100 − S9, 5.0E−05M): 0 n. of wells | Significance (TA100; TA100 − S9, 5.0E−05M): Negative | Count (n. of wells) (TA100; TA100 − S9, 5.0E−06M): 2 n. of wells | Significance (TA100; TA100 − S9, 5.0E−06M): Negative | Hepatic Extraction Ratio (E) (hepatocyte [1]): <0.25 | Predicted hepatic CL (hepatocyte [1]): <5.17 mL/min/kg | hepatocyte CLint [2]: < 2.71 µL/min/1e6 cells | half-life ([2]; read-out: In vitro T1/2): > 8.53 h | CLint scaled ([2]; read-out: Scale-up Clint): < 6.89 mL/min/kg | EC50 (5-HT1B): 327 nM | Eff (5-HT1B): 74% | Hepatic Extraction Ratio (E) (hepatocyte [3]): 0.81 | Predicted hepatic CL (hepatocyte [3]): 73.10 mL/min/kg | hepatocyte CLint [4]: 33 µL/min/1e6 cells | half-life ([4]; read-out: In vitro T1/2): 0.703 h | CLint scaled ([4]; read-out: Scale-up Clint): 389 mL/min/kg | Hepatic Extraction Ratio (E) (hepatocyte [5]): 0.32 | Predicted hepatic CL (hepatocyte [5]): 17.41 mL/min/kg | hepatocyte CLint ([6]; Rat hepatocytes): 5.43 µL/min/1e6 cells | half-life ([6]; Rat hepatocytes, read-out: In vitro T1/2): 4.26 h | CLint scaled ([6]; rat, hepatocytes, read-out: Scale-up Clint): 25.4 mL/min/kg | EC50 (5-HT2A): 0.6 nM | 5-HT2A BRET Eff (5-HT2A; normalized to % 5-HT stimulation): 102% | EC50 (5-HT7): Not active | EC50 (5-HT1D): 326 nM | Eff (5-HT1D): 72%

— patent US20250296934A1, “AZEPINOINDOLES AND METHODS OF PREPARATION THEREOF” (priority 2022, published 2025)
